According to ChEMBL document CHEMBL4613211, “Aurone: A biologically attractive scaffold as anticancer agent” (Eur J Med Chem, 2019):

Assays:
[1] = tested on: NCI-H522; assay: Growth inhibition of human NCI-H522 cells at 10 uM after 48 hrs by sulforhodamine B assay relative to control; format: functional; conditions: NCI-H522, 48 h, read-out: GI
[2] = tested on: OVCAR-5; assay: Growth inhibition of human OVCAR5 cells at 10 uM after 48 hrs by sulforhodamine B assay relative to control; format: functional; conditions: OVCAR-5, 48 h, read-out: GI
[3] = tested on: SNB-75; assay: Growth inhibition of human SNB75 cells at 10 uM after 48 hrs by sulforhodamine B assay relative to control; format: functional; conditions: SNB-75, 48 h, read-out: GI
[4] = tested on: SK-OV-3; assay: Growth inhibition of human SKOV3 cells at 10 uM after 48 hrs by sulforhodamine B assay relative to control; format: functional; conditions: SK-OV-3, 48 h, read-out: GI
[5] = tested on: NCI-H23; assay: Growth inhibition of human NCI-H23 cells at 10 uM after 48 hrs by sulforhodamine B assay relative to control; format: functional; conditions: NCI-H23, 48 h, read-out: GI
[6] = tested on: DU-145; assay: Growth inhibition of human DU145 cells at 10 uM after 48 hrs by sulforhodamine B assay relative to control; format: functional; conditions: DU-145, 48 h, read-out: GI
[7] = tested on: MDA-MB-468; assay: Growth inhibition of human MDA-MB-468 cells at 10 uM after 48 hrs by sulforhodamine B assay relative to control; format: functional; conditions: MDA-MB-468, 48 h, read-out: GI
[8] = tested on: Malme-3M; assay: Growth inhibition of human MALME-3M cells at 10 uM after 48 hrs by sulforhodamine B assay relative to control; format: functional; conditions: read-out: GI
[9] = tested on: HL-60(TB); assay: Growth inhibition of human HL-60(TB) cells at 10 uM after 48 hrs by sulforhodamine B assay relative to control; format: functional; conditions: HL-60, 48 h, read-out: GI
[10] = tested on: CCRF-CEM; assay: Growth inhibition of human CCRF-CEM cells at 10 uM after 48 hrs by sulforhodamine B assay relative to control; format: functional; conditions: read-out: GI
[11] = tested on: LOX IMVI; assay: Growth inhibition of human LOXIMVI cells at 10 uM after 48 hrs by sulforhodamine B assay relative to control; format: functional; conditions: read-out: GI
[12] = tested on: NCI-H226; assay: Growth inhibition of human NCI-H226 cells at 10 uM after 48 hrs by sulforhodamine B assay relative to control; format: functional; conditions: NCI-H226, 48 h, read-out: GI
[13] = tested on: HCT-15; assay: Growth inhibition of human HCT15 cells at 10 uM after 48 hrs by sulforhodamine B assay relative to control; format: functional; conditions: HCT-15, 48 h, read-out: GI
[14] = tested on: HCT-116; assay: Growth inhibition of human HCT116 cells at 10 uM after 48 hrs by sulforhodamine B assay relative to control; format: functional; conditions: HCT-116, 48 h, read-out: GI
[15] = tested on: BT-549; assay: Growth inhibition of human BT549 cells at 10 uM after 48 hrs by sulforhodamine B assay relative to control; format: functional; conditions: BT-549, 48 h, read-out: GI
[16] = tested on: PC-3; assay: Growth inhibition of human PC3 cells at 10 uM after 48 hrs by sulforhodamine B assay relative to control; format: functional; conditions: PC-3, 48 h, read-out: GI
[17] = tested on: M14; assay: Growth inhibition of human M14 cells at 10 uM after 48 hrs by sulforhodamine B assay relative to control; format: functional; conditions: M14, 48 h, read-out: GI
[18] = tested on: IGROV-1; assay: Growth inhibition of human IGROV1 cells at 10 uM after 48 hrs by sulforhodamine B assay relative to control; format: functional; conditions: IGROV-1, 48 h, read-out: GI
[19] = tested on: ACHN; assay: Growth inhibition of human ACHN cells at 10 uM after 48 hrs by sulforhodamine B assay relative to control; format: functional; conditions: read-out: GI
[20] = tested on: OVCAR-8; assay: Growth inhibition of human OVCAR8 cells at 10 uM after 48 hrs by sulforhodamine B assay relative to control; format: functional; conditions: OVCAR-8, 48 h, read-out: GI
[21] = tested on: NCI-H322M; assay: Growth inhibition of human NCI-H322M cells at 10 uM after 48 hrs by sulforhodamine B assay relative to control; format: functional; conditions: read-out: GI
[22] = tested on: HT-29; assay: Growth inhibition of human HT-29 cells at 10 uM after 48 hrs by sulforhodamine B assay relative to control; format: functional; conditions: HT-29, 48 h, read-out: GI
[23] = tested on: RPMI-8226; assay: Growth inhibition of human RPMI8226 cells at 10 uM after 48 hrs by sulforhodamine B assay relative to control; format: functional; conditions: RPMI-8226, 48 h, read-out: GI
[24] = target: Cyclin-dependent kinase 2 (Homo sapiens, UniProt P24941); assay: Inhibition of CDK2 (unknown origin)

Work on COc1ccc(/C=C2\Oc3c(c(OC)c4ccoc4c3CN3CCOCC3)C2=O)cc1 yielded an inhibition of growth at 10 µM [1] of 56.4 to 65.2%, an inhibition of growth at 10 µM [2] of 56.4 to 65.2% and an inhibition of growth at 10 µM [3] of 56.4 to 65.2%. The inhibition of growth at 10 µM [4] was 56.4 to 65.2%, the inhibition of growth at 10 µM [5] was 56.4 to 65.2% and the inhibition of growth at 10 µM [6] was 56.4 to 65.2%. The inhibition of growth at 10 µM [7] was 56.4 to 65.2%, the inhibition of growth at 10 µM [8] was 56.4 to 65.2% and the inhibition of growth at 10 µM [9] was 56.4 to 65.2%. It also gave an inhibition of growth at 10 µM [10] of 56.4 to 65.2%, an inhibition of growth at 10 µM [11] of 56.4 to 65.2% and an inhibition of growth at 10 µM [12] of 56.4 to 65.2%. For the same molecule, the inhibition of growth at 10 µM [13] was 56.4 to 65.2%, the inhibition of growth at 10 µM [14] was 56.4 to 65.2% and the inhibition of growth at 10 µM [15] was 56.4 to 65.2%. The inhibition of growth at 10 µM [16] was 56.4 to 65.2%, the inhibition of growth at 10 µM [17] was 56.4 to 65.2% and the inhibition of growth at 10 µM [18] was 56.4 to 65.2%. For the same molecule, the inhibition of growth at 10 µM [19] was 56.4 to 65.2%, the inhibition of growth at 10 µM [20] was 56.4 to 65.2% and the inhibition of growth at 10 µM [21] was 56.4 to 65.2%. It also gave an inhibition of growth at 10 µM [22] of 56.4 to 65.2% and an inhibition of growth at 10 µM [23] of 56.4 to 65.2%.

Work on COc1ccc2c(c1)O/C(=C\c1ccc(OCC(=O)Nc3ccccc3)c(OC)c1)C2=O yielded an inhibition of growth at 10 µM [1] of 18.9 to 27.1%, an inhibition of growth at 10 µM [2] of 18.9 to 27.1% and an inhibition of growth at 10 µM [3] of 18.9 to 27.1%. It also gave an inhibition of growth at 10 µM [4] of 18.9 to 27.1%, an inhibition of growth at 10 µM [5] of 18.9 to 27.1% and an inhibition of growth at 10 µM [6] of 18.9 to 27.1%. It also gave an inhibition of growth at 10 µM [7] of 18.9 to 27.1%, an inhibition of growth at 10 µM [8] of 18.9 to 27.1% and an inhibition of growth at 10 µM [9] of 18.9 to 27.1%. It also gave an inhibition of growth at 10 µM [10] of 18.9 to 27.1%, an inhibition of growth at 10 µM [11] of 18.9 to 27.1% and an inhibition of growth at 10 µM [12] of 18.9 to 27.1%. For the same molecule, the inhibition of growth at 10 µM [13] was 18.9 to 27.1%, the inhibition of growth at 10 µM [14] was 18.9 to 27.1% and the inhibition of growth at 10 µM [15] was 18.9 to 27.1%. It also gave an inhibition of growth at 10 µM [16] of 18.9 to 27.1%, an inhibition of growth at 10 µM [17] of 18.9 to 27.1% and an inhibition of growth at 10 µM [18] of 18.9 to 27.1%. The inhibition of growth at 10 µM [19] was 18.9 to 27.1%, the inhibition of growth at 10 µM [20] was 18.9 to 27.1% and the inhibition of growth at 10 µM [21] was 18.9 to 27.1%. The inhibition of growth at 10 µM [22] was 18.9 to 27.1% and the inhibition of growth at 10 µM [23] was 18.9 to 27.1%.

Molecule COc1cc(/C=C2\Oc3cc4occc4c(OC)c3C2=O)ccc1OCC(=O)Nc1ccccc1 has an inhibition of growth at 10 µM [1] of 67.1 to 79.6%, an inhibition of growth at 10 µM [2] of 67.1 to 79.6% and an inhibition of growth at 10 µM [3] of 67.1 to 79.6%. The inhibition of growth at 10 µM [4] was 67.1 to 79.6%, the inhibition of growth at 10 µM [5] was 67.1 to 79.6% and the inhibition of growth at 10 µM [6] was 67.1 to 79.6%. The inhibition of growth at 10 µM [7] was 67.1 to 79.6%, the inhibition of growth at 10 µM [8] was 67.1 to 79.6% and the inhibition of growth at 10 µM [9] was 67.1 to 79.6%. The inhibition of growth at 10 µM [10] was 67.1 to 79.6%, the IC50 [24] was 1110 nM and the inhibition of growth at 10 µM [11] was 67.1 to 79.6%. It also gave an inhibition of growth at 10 µM [12] of 67.1 to 79.6%, an inhibition of growth at 10 µM [13] of 67.1 to 79.6% and an inhibition of growth at 10 µM [14] of 67.1 to 79.6%. It also gave an inhibition of growth at 10 µM [15] of 67.1 to 79.6%, an inhibition of growth at 10 µM [16] of 67.1 to 79.6% and an inhibition of growth at 10 µM [17] of 67.1 to 79.6%. It also gave an inhibition of growth at 10 µM [18] of 67.1 to 79.6%, an inhibition of growth at 10 µM [19] of 67.1 to 79.6% and an inhibition of growth at 10 µM [20] of 67.1 to 79.6%. For the same molecule, the inhibition of growth at 10 µM [21] was 67.1 to 79.6%, the inhibition of growth at 10 µM [22] was 67.1 to 79.6% and the inhibition of growth at 10 µM [23] was 67.1 to 79.6%.
